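Five compound concentrations were applied to cells in 96-well plates for 48 hours; endpoints were derived by simple linear interpolation of the resulting dose-response curve. GI50 is the concentration that inhibits growth by half. TGI: total growth inhibition.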
What was measured:
Test in all cases: NCI tumour cell line growth inhibition, 48 h
A549 NSCLC = system: A549 NSCLC
SNB-19 CNS = system: SNB-19 CNS
SK-MEL-2 melanoma = system: SK-MEL-2 melanoma
OVCAR-3 ovarian = system: OVCAR-3 ovarian
HOP-92 NSCLC = system: HOP-92 NSCLC
SK-MEL-5 melanoma = system: SK-MEL-5 melanoma
EKVX NSCLC = system: EKVX NSCLC
ACHN renal = system: ACHN renal
HS 578T breast = system: HS 578T breast
CAKI-1 renal = system: CAKI-1 renal
HOP-62 NSCLC = system: HOP-62 NSCLC
LOX IMVI melanoma = system: LOX IMVI melanoma
OVCAR-5 ovarian = system: OVCAR-5 ovarian
SF-268 CNS = system: SF-268 CNS
SF-295 CNS = system: SF-295 CNS
T-47D breast = system: T-47D breast
NCI/ADR-RES ovarian = system: NCI/ADR-RES ovarian
K-562 leukemia = system: K-562 leukemia
UO-31 renal = system: UO-31 renal
MCF7 breast = system: MCF7 breast
HCT-116 colon = system: HCT-116 colon
M14 melanoma = system: M14 melanoma
CCRF-CEM leukemia = system: CCRF-CEM leukemia
786-0 renal = system: 786-0 renal
HL-60(TB) leukemia = system: HL-60(TB) leukemia
HCC-2998 colon = system: HCC-2998 colon
NCI-H226 lung = system: NCI-H226 lung
SF-539 CNS = system: SF-539 CNS
NCI-H23 lung = system: NCI-H23 lung
HT29 colon = system: HT29 colon
UACC-257 melanoma = system: UACC-257 melanoma
COLO 205 colon = system: COLO 205 colon
MDA-MB-435 = system: MDA-MB-435
PC-3 prostate = system: PC-3 prostate
NCI-H460 lung = system: NCI-H460 lung
KM12 colon = system: KM12 colon
RXF 393 renal = system: RXF 393 renal
TK-10 renal = system: TK-10 renal
OVCAR-8 ovarian = system: OVCAR-8 ovarian
MALME-3M melanoma = system: MALME-3M melanoma
MDA-MB-231 breast = system: MDA-MB-231 breast
SN12C renal = system: SN12C renal
SR leukemia = system: SR leukemia
U251 CNS = system: U251 CNS
SK-MEL-28 melanoma = system: SK-MEL-28 melanoma
RPMI-8226 leukemia = system: RPMI-8226 leukemia
OVCAR-4 ovarian = system: OVCAR-4 ovarian
A498 renal = system: A498 renal
SK-OV-3 ovarian = system: SK-OV-3 ovarian
HCT-15 colon = system: HCT-15 colon
SW-620 colon = system: SW-620 colon
NCI-H522 lung = system: NCI-H522 lung
MOLT-4 leukemia = system: MOLT-4 leukemia
BT-549 breast = system: BT-549 breast
UACC-62 melanoma = system: UACC-62 melanoma
DU-145 prostate = system: DU-145 prostate
SNB-75 CNS = system: SNB-75 CNS

COC(=O)c1cc(-c2ccc(OC)c(OC)c2)[nH]c1N/N=C/c1c(Cl)cccc1Cl
GI50 (A549 NSCLC): 948 nM | TGI (A549 NSCLC): 8280 nM | GI50 (SNB-19 CNS): 673 nM | TGI (SNB-19 CNS): 6980 nM | GI50 (SK-MEL-2 melanoma): 832 nM | TGI (SK-MEL-2 melanoma): 7140 nM | GI50 (OVCAR-3 ovarian): 366 nM | TGI (OVCAR-3 ovarian): 1870 nM | GI50 (HOP-92 NSCLC): 944 nM | TGI (HOP-92 NSCLC): 5060 nM | GI50 (SK-MEL-5 melanoma): 387 nM | TGI (SK-MEL-5 melanoma): 4560 nM | GI50 (EKVX NSCLC): 708 nM | TGI (EKVX NSCLC): 19500 nM | GI50 (ACHN renal): 1180 nM | TGI (ACHN renal): 13200 nM | GI50 (HS 578T breast): 523 nM | TGI (HS 578T breast): 11000 nM | GI50 (CAKI-1 renal): 768 nM | TGI (CAKI-1 renal): 7100 nM | GI50 (HOP-62 NSCLC): 1170 nM | TGI (HOP-62 NSCLC): 10100 nM | GI50 (LOX IMVI melanoma): 837 nM | TGI (LOX IMVI melanoma): 13000 nM | GI50 (OVCAR-5 ovarian): 1910 nM | TGI (OVCAR-5 ovarian): 7420 nM | GI50 (SF-268 CNS): 705 nM | TGI (SF-268 CNS): 6270 nM | GI50 (SF-295 CNS): 257 nM | TGI (SF-295 CNS): 2070 nM | GI50 (T-47D breast): 3990 nM | TGI (T-47D breast): 92500 nM | GI50 (NCI/ADR-RES ovarian): 557 nM | TGI (NCI/ADR-RES ovarian): 9010 nM | GI50 (K-562 leukemia): 460 nM | TGI (K-562 leukemia): > 100000 nM | GI50 (UO-31 renal): 834 nM | TGI (UO-31 renal): 3250 nM | GI50 (MCF7 breast): 301 nM | TGI (MCF7 breast): 1440 nM | GI50 (HCT-116 colon): 396 nM | TGI (HCT-116 colon): 2110 nM | GI50 (M14 melanoma): 523 nM | TGI (M14 melanoma): 5200 nM | GI50 (CCRF-CEM leukemia): 406 nM | TGI (CCRF-CEM leukemia): > 100000 nM | GI50 (786-0 renal): 830 nM | TGI (786-0 renal): 4320 nM | GI50 (HL-60(TB) leukemia): 250 nM | TGI (HL-60(TB) leukemia): 531 nM | GI50 (HCC-2998 colon): 265 nM | TGI (HCC-2998 colon): 1430 nM | GI50 (NCI-H226 lung): 1900 nM | TGI (NCI-H226 lung): > 51300 nM | GI50 (SF-539 CNS): 317 nM | TGI (SF-539 CNS): 1020 nM | GI50 (NCI-H23 lung): 848 nM | TGI (NCI-H23 lung): 13000 nM | GI50 (HT29 colon): 434 nM | TGI (HT29 colon): 2300 nM | GI50 (UACC-257 melanoma): 723 nM | TGI (UACC-257 melanoma): > 23100 nM | GI50 (COLO 205 colon): 901 nM | TGI (COLO 205 colon): 4950 nM | GI50 (MDA-MB-435): 127 nM | TGI (MDA-MB-435): 562 nM | GI50 (PC-3 prostate): 538 nM | GI50 (NCI-H460 lung): 379 nM | TGI (NCI-H460 lung): 1850 nM | GI50 (KM12 colon): 400 nM | TGI (KM12 colon): 9690 nM | GI50 (RXF 393 renal): 132 nM | TGI (RXF 393 renal): 933 nM | GI50 (TK-10 renal): 1640 nM | TGI (TK-10 renal): 9470 nM | GI50 (OVCAR-8 ovarian): 1310 nM | TGI (OVCAR-8 ovarian): 8670 nM | GI50 (MALME-3M melanoma): 860 nM | TGI (MALME-3M melanoma): 31800 nM | GI50 (MDA-MB-231 breast): 1310 nM | TGI (MDA-MB-231 breast): 5030 nM | GI50 (SN12C renal): 969 nM | TGI (SN12C renal): 18800 nM | GI50 (SR leukemia): 394 nM | TGI (SR leukemia): > 100000 nM | GI50 (U251 CNS): 671 nM | TGI (U251 CNS): 2430 nM | GI50 (SK-MEL-28 melanoma): 970 nM | TGI (SK-MEL-28 melanoma): 71200 nM | GI50 (RPMI-8226 leukemia): 531 nM | TGI (RPMI-8226 leukemia): > 100000 nM | GI50 (OVCAR-4 ovarian): 1670 nM | TGI (OVCAR-4 ovarian): 12100 nM | GI50 (A498 renal): 532 nM | TGI (A498 renal): 3800 nM | GI50 (SK-OV-3 ovarian): 567 nM | TGI (SK-OV-3 ovarian): 2660 nM | GI50 (HCT-15 colon): 946 nM | TGI (HCT-15 colon): 24000 nM | GI50 (SW-620 colon): 443 nM | TGI (SW-620 colon): 12700 nM | GI50 (NCI-H522 lung): 502 nM | TGI (NCI-H522 lung): 2510 nM | GI50 (MOLT-4 leukemia): 680 nM | TGI (MOLT-4 leukemia): > 100000 nM | GI50 (BT-549 breast): 887 nM | TGI (BT-549 breast): 3480 nM | GI50 (UACC-62 melanoma): 552 nM | TGI (UACC-62 melanoma): 11200 nM | GI50 (DU-145 prostate): 448 nM | TGI (DU-145 prostate): 1930 nM | GI50 (SNB-75 CNS): 379 nM | TGI (SNB-75 CNS): 2210 nM
